The term pKa denotes the negative logarithm of the acid dissociation constant.

The values below come from patent US9664696B1, “Compounds for determining the presence of hydrogen sulfide and methods of use” (University of Oregon, priority 2013, dated 2017).

The conditions of data set [1]: pH 7.4.
Data set [2] is described as follows: UV-vis titration of 100 with NaSH, absorbance of products. It counts as physicochemical. On the set-up: ε413: unit not given here. The settings on record: PIPES buffer pH 7.4.
The nature of data set [3]: pH titration of compound 42 monitored by UV-vis. It counts as physicochemical. The settings on record: aqueous 100 mM KCl / 10 mM KOH solution titrated with HCl; absorbance at 534 nm as a function of pH; read-out: apparent pKa of the thiol. As for the experimental part: A 15 mL solution of compound 42 (111 μM) in 100 mM KCl and 10 mM KOH Millipore water was prepared. The pH of the solution was adjusted with 10 M, 5 M, 1 M, 50 mM, or 1 mM solutions of HCl and the pH recorded. At each pH value, an aliquot of the solution was transferred to a cuvette and the UV-vis spectrum was measured. After measurement, the aliquot was returned to the stock solution and the pH was adjusted to the next point in the titration.

Data set [4] is described as follows: Colorimetric selectivity studies, H2S versus amino acids and RSONS.
A short description of data set [5]: Chemiluminescent H2S detection limit (HRP/H2O2/p-iodophenol). The settings on record: for chemiluminescent response after H2S-mediated reduction: followed by treatment with HRP and H2O2; for chemiluminescence in the absence of H2S: treatment with HRP and H2O2, by comparison to luminol or isoluminol. As to the method:
(§1) In a septum-sealed cuvette, a solution of the compound (50 μM) and the desired reactive species was incubated in PIPES buffer (50 mM PIPES, 100 mM KCl, pH 7.4) for 60 minutes at 37.0° C. After incubation, 40 μL of 6 M NaOH was added to increase the pH to an optimal level for luminol chemiluminescence. After pH adjustment, 10 μL of 10 U/mL Horseradish Peroxidase (HRP) with 0.2 μM p-iodophenol was added. A background reading was acquired for 60 seconds, after which 50 μL of H2O2 (35%) was added. The sample luminosity at 425 nm was integrated for 300 s after H2O2 addition. The data reported are the average of at least three independent experiments.
In this particular embodiment, the use of a compound for a chemiluminescent testing method is disclosed.
Following the H2S-derived chemiluminescent response of both chemiluminescent compound precursor 200 and chemiluminescent compound precursor 202, the detection limit of each chemiluminescent compound precursor for H2S was determined. After incubating each chemiluminescent compound precursor for 1 hour for different H2S concentrations, the chemiluminescent response was measured after treatment with H2O2/HRP using p-iodophenol as an enhancer. […] Based on the concentration-dependent H2S response and the instrumental background measurements, the H2S detection limit (3σ) of chemiluminescent compound precursor 200 and chemiluminescent compound precursor 202 was determined to be 0.7±0.3 μM and 4.6±2.0 μM, respectively. Although the total brightness of chemiluminescent compound precursor 202 was lower than that of compound 200, both these detection limits were below the reported range of H2S concentrations (20 μM-100 μM) found in mammalian blood.

Data set [6] can be described thus: Air sensitivity of the chemiluminescent compound precursors. In kind it is physicochemical.
Data set [7] is described as follows: 1H NMR titration, 1:1 binding model, TBA-Ser. The settings on record: 10.0 mM probe, 0-200 mM amino acid, DMSO-d6, 25.0° C., average of three titrations. As for the experimental part: (§2) A septum-sealed NMR tube was charged with either chemiluminescent compound precursor 200 or 202 (10 mM in 300 μL of DMSO-d6) and aliquots of a DMSO-d6 solution containing 200 mM amino acid mixed with 10 mM of the compound were added using a syringe. The chemical shifts of the aromatic proton resonances were tracked and the data were fitted to a 1:1 binding model.
In addition to computational evidence for the hydrogen-bonding hypothesis, NMR titrations of chemiluminescent compound precursors 200 and 202 were also performed with different amino acids to further validate the model with solution data. Serine was used as a model amino acid because cysteine quickly reduces chemiluminescent compound precursor 200 under typical experimental conditions. […] Similarly, to model the protonation state of the amino acids in water, and also to ensure complete solubility through the course of the titration, the tetrabutylammonium salts of each amino acid were prepared. By titrating tetrabutylammonium serine (TBA-Ser) into independent solutions of chemiluminescent compound precursors 200 and 202, striking changes in the aromatic region of the NMR spectra were observed, consistent with amino acid binding to the hydrazide moiety (FIGS. 34A-34C). […]

Data set [8] in a line: Chemiluminescence selectivity for H2S over reactive sulfur, oxygen, and nitrogen species (RSONS). The settings on record: for turn on for H2S: chemiluminescence, H2S versus blank. As for the experimental part: as §1
The response of chemiluminescent compound precursor 200 and chemiluminescent compound precursor 202 to biologically-relevant reactive sulfur, oxygen, and nitrogen species (RSONS) was also determined. The selectivity of chemiluminescent compound precursor 200 for H2S was determined by adding 33 equivalents of cysteine (Cys), homocysteine (Hcy), N-acetylcysteine (NAC), reduced glutathione (GSH), thiosulfate (S2O3^2−), sulfate (SO4^2−), nitric oxide (NO), nitroxyl (HNO), and nitrite (NO2^−) (FIGS. 10 and 11). […]

A short description of data set [9]: 1H NMR titration, 1:1 binding model, TBA-Val. The settings on record: 10.0 mM probe, 0-200 mM amino acid, DMSO-d6, 25.0° C., average of three titrations. As to the method: as §2
^1H NMR titrations with tetrabutylammonium valine (TBA-Val) were also performed as a second model system in which the side chain of the amino acid cannot hydrogen bond to the azide. […] The binding affinities measured for TBA-Val are larger than for TBA-Ser (Table 9), which is consistent with the reduced internal competition for intramolecular hydrogen bonding sites in valine. Based on these titration data, and the lower hydrogen bonding ability of thiols by comparison to alcohols, binding affinity of cysteine for chemiluminescent compound precursor 200 and 202 was expected to be between the measured values for serine and valine. Under the general experimental conditions used to measure the selectivity date, a 10^3-10^4 M^−1 binding affinity between Cys/chemiluminescent compound precursor 200 would result in significant generation of the Cys/chemiluminescent compound precursor 200 adduct, which is consistent with the observed erosion in selectivity. […]

In data set [10] the target is cystathionine γ-lyase (CSE) (Homo sapiens, UniProt P32929). In words: Detection of enzymatically produced H2S from isolated CSE. In kind it is biochemical. As for the experimental part:
(§3) In a septum sealed cuvette, the desired reactive species were incubated in PIPES buffer (50 mM PIPES, 100 mM KCl, pH 7.4) at 37.0° C. for 48 hours. After initial incubation, 15 μL of 10 mM chemiluminescent compound precursor 202 in DMSO was added, and allowed to react for 60 min. After incubation, 40 μL of 6 M NaOH was added to increase the pH to an optimal level for luminol chemiluminescence. After pH adjustment, 10 μL of 10 U/mL Horse-radish Peroxidase (HRP) with 0.2 μM p-iodophenol was added. A background reading was acquired for 60 s, after which 50 μL of H2O2 (35%) was added. The sample luminosity at 425 nm was integrated for 40 s after H2O2 addition. The data reported are the average of at least three independent experiments.
CSE is a PLP-dependent enzyme that converts Hcy or Cys to H2S and can be inhibited by β-cyano-L-alanine (BCA).

Another data set has as its system C6 cells. In words: Detection of endogenously produced H2S in C6 cell lysates. In kind it is cell-based. As to the method:
as §3
C6 cells were obtained from ATCC and cultured in Dulbecco's Modified Eagle Medium (DMEM, Cellgro, MediaTek, Inc.) supplemented with 10% fetal bovine serum (FBS, HyClone), and 1% penicillin/streptomycin. Cells were passed and plated into T-75 flasks containing 10 mL of DMEM, and incubated at 37° C. with 5% CO2. For luminescence studies, the cells were washed with 1× phosphate buffered saline (PBS), trypsinized with 5 mL of Trypsin, and then centrifuged to form a cell pellet. The cell pellet was resuspended in 5 mL of 1×PBS and the cells were counted using a Bio RAD TC20 automated cell counter. Cells were centrifuged at 1,000 RPM for 5 minutes at room temperature, placed on ice and lysed using 100 μL of RIPA buffer (pH 7.5 10 mM Tris-HCl, 150 mM NaCl, 1.0% Nonidet P-40, 0.1% SDS, 0.1% sodium deoxycholate) containing protease inhibitor (PhosSTOP, Roche) for every 2×10^6 cells in the pellet. Luminescence measurements on cell lysates were made using 100 μL of lysate solution (2×10^6 cells per experiment) under ambient atmosphere by following the general procedure for enzymatically produced H2S outlined above.
The ability of chemiluminescent compound precursor 202 to detect and quantify endogenously-produced H2S in C6 cells was determined.

Where [11] appears, read: 30 equivalents of H2S then added, 45 min.
[12] abbreviates: Reactant 2-mercaptoethanol (2-ME).
Setting [13] is: Reactant H2S, 33 equivalents, 50 μM compound, 60 min, 37.0° C., pH 7.4.

Each structure is given as a SMILES string.

cystathionine γ-lyase (CSE), sequence (P32929 whole entry, species assumed): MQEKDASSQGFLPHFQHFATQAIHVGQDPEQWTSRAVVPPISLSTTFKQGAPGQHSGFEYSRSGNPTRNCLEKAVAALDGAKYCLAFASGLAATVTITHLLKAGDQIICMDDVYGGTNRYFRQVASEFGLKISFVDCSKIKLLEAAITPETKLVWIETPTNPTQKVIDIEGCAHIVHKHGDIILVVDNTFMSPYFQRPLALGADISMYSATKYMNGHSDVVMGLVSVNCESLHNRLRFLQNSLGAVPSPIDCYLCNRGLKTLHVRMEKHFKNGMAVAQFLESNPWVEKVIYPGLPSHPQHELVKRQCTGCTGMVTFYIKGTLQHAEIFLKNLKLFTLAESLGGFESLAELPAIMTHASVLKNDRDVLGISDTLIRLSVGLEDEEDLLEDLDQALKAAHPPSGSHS

For `Cc1cc(=O)oc2cc(N=[N+]=[N-])ccc12` [C-7Az, 7-azido-4-methylcoumarin], the “photostability under continuous exposure” value in data set [1] is “probe photoactivation”.
On to `O=[N+]([O-])c1ccc(Sc2ccc([N+](=O)[O-])c3nonc23)c2nonc12` [compound 40, bis(7-Nitrobenzo[c][1,2,5]oxadiazol-4-yl)sulfane], for which the ε413 in [2] (absorbance at 413 nm) is on record as 11,700±100.
As to `O=[N+]([O-])c1ccc(S)c2nonc12` [compound 42, 7-Nitrobenzo[c][1,2,5]oxadiazole-4-thiol], the pKa in data set [3] amounted to 2.6. The ε534 in data set [2] (λmax 534 nm) was 19,000±600 M^−1 cm^−1.
Turning to `O=[N+]([O-])c1ccc(Sc2ccc([N+](=O)[O-])c3nonc23)cc1` [compound 116, 4-Nitro-7-(4-nitrophenylthio)benzo[c][1,2,5]oxadiazole], the “absorbance peak at 534 nm after initial incubation” value in [4] (3 μM compound, 10 equivalents of H2S, glycine, serine, tyrosine, lysine, glutathione, N-acetyl-L-cysteine) is “only the H2S samples showed the characteristic absorbance peak at 534 nm”. Also, in [4] (setting [11]), the “H2S response after incubation of GSH and N-acetylcysteine” value is reported as “somewhat eroded”; the “colorimetric response to H2S after incubation with biological nucleophiles” value is “robust colorimetric response to H2S”.
As for `[N-]=[N+]=Nc1cccc2c(=O)[nH][nH]c(=O)c12` [compound 200, 3-Azidophthalhydrazide], in [5], the “chemiluminescent response after H2S-mediated reduction” value is “robust chemiluminescent response”. The “chemiluminescence in the absence of H2S” value in [5] was “negligible chemiluminescence”. Besides, the air sensitivity result in [6] is “not air-sensitive”. The “Binding Affinities” value in [7] is 380 ± 80 M⁻¹; in data set [9] it was 3640 ± 270 M⁻¹. The “Normalized Luminescence (CL/CL0)” value in data set [8] (setting [12]) amounted to 6.6 ± 3.2; in data set [8] (Reactant Cys), 81 ± 5; in [8] (Reactant GSH), 94 ± 12; in data set [8] (setting [13]), 128 ± 16; in [8] (Reactant HNO), 9.1 ± 0.2; in [8] (Reactant Hcy) it was 57 ± 3. Besides, the “Normalized Luminescence (CL/CL0)” value amounted to 37 ± 19 in data set [8] (Reactant NAC); 0.9 ± 0.2 in data set [8] (Reactant NO2); 0.6 ± 0.2 in data set [8] (Reactant ONOO^−); 5.9 ± 1.1 in data set [8] (Reactant S2O^2−); 0.05 ± 0.01 in data set [8] (Reactant SNAP (NO)); 0.8 ± 0.3 in data set [8] (Reactant SO4^2−). Moreover, in data set [8], the “turn on for H2S” value is 128 fold.
In the case of `[N-]=[N+]=Nc1ccc2c(=O)[nH][nH]c(=O)c2c1` [compound 202, 4-Azidophthalhydrazide], in data set [10], the “chemiluminescent response with CSE in the absence of substrate” value is “no response”. In data set [10] (by comparison to CSE alone (p<0.001) or CSE and Hcy inhibited with BCA (p<0.005)), the “chemiluminescent response with CSE and Hcy substrate” value was “robust response”. For the same compound, the “chemiluminescent response to Hcy, BCA, pyruvate (Pyr) and NH3” value in [10] (control experiments without CSE, p<0.005) is given as “negligible”. Further, the “luminescent response in C6 cell lysates lacking CSE substrates” value in the data set with C6 cells is on record as “minimal luminescent response”. Besides, in the data set with C6 cells (p<0.001 by comparison to lysates lacking substrate), the “luminescence in C6 cell lysates with Hcy as CSE substrate” value is “significantly increased luminescence”. Also, the “luminescent response in C6 cell lysates with Hcy and BCA” value in the data set on C6 cells (p<0.005) was “abrogated the luminescent response”. The “chemiluminescent response after H2S-mediated reduction” value in [5] is on record as “robust chemiluminescent response”. Besides, the “chemiluminescence in the absence of H2S” value in data set [5] is on record as “negligible chemiluminescence”. The air sensitivity entry in data set [6] is given as “not air-sensitive”. Also, the “Binding Affinities” value in data set [7] was 260 ± 60 M⁻¹; in [9] it was 3780 ± 370 M⁻¹. Besides, the “Normalized Luminescence (CL/CL0)” value turned out to be 1.7 ± 0.08 in data set [8] (setting [12]); 1.5 ± 0.03 in data set [8] (Reactant Cys); 3.7 ± 0.9 in [8] (Reactant GSH); 45 ± 3 in [8] (setting [13]); 3.3 ± 0.2 in [8] (Reactant HNO); 3.3 ± 0.5 in [8] (Reactant Hcy). The “Normalized Luminescence (CL/CL0)” value turned out to be 3.3 ± 0.4 in [8] (Reactant NAC); 3.2 ± 0.6 in data set [8] (Reactant NO2); 4.0 ± 0.2 in data set [8] (Reactant ONOO^−); 2.2 ± 0.6 in [8] (Reactant S2O^2−); 1.5 ± 0.5 in data set [8] (Reactant SNAP (NO)); 1.5 ± 0.3 in data set [8] (Reactant SO4^2−). Besides, the “Normalized Luminescence (CL/CL0)” value in data set [8] (Reactant Toluenethiol (TolSH)) amounted to 1.9 ± 0.4. Moreover, the “turn on for H2S” value in [8] worked out at 45 fold.
